Measured values reported in patent publication US4315023A, “1-Phenethylimidazole derivatives” (Westwood Pharmaceuticals, Inc., priority 1980, dated 1982).
Where a name gives a salt, the structure may show the parent alone. Values belong to the compound of their own block, whether it stands above or below them.

Key:
[1] = tested on: Trichophyton quinekeanum; assay: Trichophyton quinekeanum induced skin infection in guinea pigs; format: in vivo, male guinea pigs; conditions: for EC50, Trichophyton Skin Infection: Table I, percentage drug concentration giving 50% of the score of untreated control, topical ointment; for EC50 (%) (95% CL), Trichophyton skin infection: Table II, N = 4, 3 applications day 1, 3 and 5; for Score, Determ. F / Score, Mean / Score, Determ. G / Score, Determ. E: lesion score 0-4
Description: In the guinea pig skin infection test, Trichophyton quinekeanum was cultured on a YGP agar slant at 28° C. for 10 days. Spores were collected from the mycelial mat and suspended in Sabouraud broth containing 2% of Tween 80. Groups of 3 male guinea pigs weighing between 400-500 g were used for each dose of test compound. The flanks of the animals were depilated and injured with sandpaper. The injured area was inoculated and rubbed with a glass rod on day 0 with 0.2 ml of the spore suspension containing 10^8 CFU/ml. The test compound was combined with a 1:1 mixture of polyethylene glycol 400 and 4000, and 0.3 ml of the ointment was applied to the infected area on day 1, 3 and 5. Lesions were examined on day 7 and scored as follows: 0, normal; 1, erythema; 2, erythema with whitish area; 3, erythema and numerous whitish areas; 4, erythema with confluent scaling and whitish pateches. A compound showing a mean score of 1.5 or less was considered active.
In the following Table I the antifungal activity of the test compound is reported as the EC50 value, which is the percentage drug concentration giving 50% of the score of untreated control animals. The EC50 was calculated by the method of least squares (K. Brounlee: Statistical Theory and Methodology in Science and Engineering, pages 345-349, Wiley Press, New York, 1965). In Table II a more detailed comparison on the in vivo antifungal activities of compound 3a and the isomeric prior art compound 2 are shown together with the data for compound 3b.
Treatment: 5 applications (day 0 to 4) against candida vaginal infection
and 3 applications (day 1, 3 and 5) against trichophyton skin infection

[2] = tested on: Candida albicans; assay: Candida albicans induced vaginal infection in mice; format: in vivo, female mice; conditions: for EC50, Candida Vaginal Infection: Table I, percentage drug concentration giving 50% of the score of untreated control, intravaginal; for EC50 (%) (95% CL), Candida vaginal infection: Table II, N = 5, 5 applications day 0 to 4; for Score, Determination A / Score, Determination B / Score, Mean / Score, Determination C / Score, Determination D: score 0-4
Description: A majority of the compounds of formula 3 were evaluated together with the prior art compound of formula 2 in a Candida albicans induced vaginal infection in mice and a Trichophyton quinekeanum induced skin infection in guinea pigs. Sabouraud broth was inoculated with Candida albicans and the inoculum incubated for two days at 28° C. on a rotary shaker. Groups of four to five female mice weighing between 18-21 grams were infected intravaginally with a 0.01 ml portion of the cell suspension containing 10^8 cells/ml on day 0. The mice were treated subcutaneously with 0.5 mg of estradiol benzoate three days before and four days after infection. The test compounds were suspended in 1% carboxymethyl cellulose and 0.02 ml of the suspension was instilled intravaginally from day 0 (four hours after infection) to day 4 (5 applications). On day 7, vaginal exudate was taken by a thin glass rod and streaked on a YGP agar plate containing 100 mcg/ml of chloramphenicol. The plate was incubated for two days at 28° C. […] In the following Table I the antifungal activity of the test compound is reported as the EC50 value, which is the percentage drug concentration giving 50% of the score of untreated control animals. The EC50 was calculated by the method of least squares (K. Brounlee: Statistical Theory and Methodology in Science and Engineering, pages 345-349, Wiley Press, New York, 1965). In Table II a more detailed comparison on the in vivo antifungal activities of compound 3a and the isomeric prior art compound 2 are shown together with the data for compound 3b.

[3] = tested on: Staphylococcus aureus; assay: in vitro antibacterial activity (MIC), S. aureus; format: cell-based; conditions: Nutrient Broth
[4] = tested on: Streptococcus pneumoniae; assay: in vitro antibacterial activity (MIC), S. pneumoniae; format: cell-based; conditions: 50% Nutrient Broth + 5% human serum
[5] = tested on: S. faecalis; assay: in vitro antibacterial activity (MIC), S. faecalis; format: cell-based, Streptococcus faecalis; conditions: Enterococcus faecalis; Nutrient Broth
[6] = tested on: Streptococcus pyogenes; assay: in vitro antibacterial activity (MIC), S. pyogenes; format: cell-based; conditions: 50% Nutrient Broth + 5% human serum

- EC50, Trichophyton Skin Infection [1]: 0.10%
- EC50 (%) (95% CL), Trichophyton skin infection [1]: 0.10%
- EC50, Candida Vaginal Infection [2]: > 0.3%
- EC50 (%) (95% CL), Candida vaginal infection [2]: > 0.3%
SMILES: Clc1ccc(SCCSC(Cn2ccnc2)c2ccc(Cl)cc2Cl)cc1 (centres unmarked) [Compound 2, reference compound]
- Score, Determ. F ([1]; conc. 0.03%): 2.3
- Score, Mean ([1]; conc. 0.03%): 2.3
- Score, Determ. F ([1]; conc. 0.1%): 2.3
- Score, Mean ([1]; conc. 0.1%): 2.3
- Score, Determ. F ([1]; conc. 0.3%): 0.5
- Score, Mean ([1]; conc. 0.3%): 0.5
- Score, Determination A ([2]; conc. 0.03%): 2.8
- Score, Determination B ([2]; conc. 0.03%): 3.2
- Score, Mean ([2]; conc. 0.03%): 3.0
- Score, Determination A ([2]; conc. 0.1%): 2.4
- Score, Determination B ([2]; conc. 0.1%): 3.0
- Score, Mean ([2]; conc. 0.1%): 2.7
- Score, Determination A ([2]; conc. 0.3%): 3.4
- Score, Determination B ([2]; conc. 0.3%): 1.8
- Score, Mean ([2]; conc. 0.3%): 2.6

- MIC ([3]; Strain A): 1 mg/L
- MIC ([3]; Strain B): 8 mg/L
- MIC ([3]; Strain C): 2 mg/L
- MIC [4]: 63 mg/L
- MIC [5]: 1 mg/L
- MIC [6]: 63 mg/L
SMILES: Clc1ccc(C(Cn2ccnc2)SCSCc2ccc(Cl)cc2Cl)cc1.O=C(O)/C=C/C(=O)O (centres unmarked) [Compound 3g, 1-[2-(4-Chlorophenyl)-2-(2,4-dichlorobenzylthiomethylthio)ethyl]-1H-imidazole hydrogen fumarate]

- EC50, Trichophyton Skin Infection [1]: 0.038%
- EC50, Candida Vaginal Infection [2]: 0.0022%
SMILES: Cl.Clc1ccc(C(Cn2ccnc2)SCSCc2ccc(Cl)s2)c(Cl)c1 (centres unmarked) [Compound 3i, 1-[2-(5-Chloro-2-thienylmethylthiomethylthio)-2-(2,4-dichlorophenyl)ethyl]-1H-imidazole hydrochloride]

Continued, compound first:

SMILES: Clc1ccc(CSCSC(Cn2ccnc2)c2ccc(Cl)cc2Cl)cc1 (centres unmarked) [Compound 3a, 1-[2-(4-Chlorobenzylthiomethylthio)-2-(2,4-dichlorophenyl)ethyl]1-H-imidazole hydrogen fumarate]
- EC50, Trichophyton Skin Infection [1]: 0.039%
- EC50 (%) (95% CL), Trichophyton skin infection [1]: 0.039%
- Score, Determ. G ([1]; conc. 0.01%): 2.0
- Score, Mean ([1]; conc. 0.01%): 2.0
- Score, Determ. E ([1]; conc. 0.03%): 1.8
- Score, Determ. F ([1]; conc. 0.03%): 2.5
- Score, Determ. G ([1]; conc. 0.03%): 1.5
- Score, Mean ([1]; conc. 0.03%): 1.9
- Score, Determ. E ([1]; conc. 0.1%): 1.5
- Score, Determ. F ([1]; conc. 0.1%): 1.0
- Score, Determ. G ([1]; conc. 0.1%): 0.3
- Score, Mean ([1]; conc. 0.1%): 0.92
- Score, Determ. E ([1]; conc. 0.3%): 1.0
- Score, Determ. F ([1]; conc. 0.3%): 0
- Score, Determ. G ([1]; conc. 0.3%): 0
- Score, Mean ([1]; conc. 0.3%): 0.33
- times more efficacious than prior art compound 2, Trichophyton induced skin infection in guinea pigs ([1]; hydrogen fumarate of 3a vs prior art compound 2): about 2.5 times
- EC50, Candida Vaginal Infection [2]: 0.0035%
- EC50 (%) (95% CL), Candida vaginal infection [2]: 0.0035%
- Score, Determination A ([2]; conc. 0.0003%): 2.8
- Score, Determination B ([2]; conc. 0.0003%): 2.2
- Score, Determination C ([2]; conc. 0.0003%): 3.4
- Score, Determination D ([2]; conc. 0.0003%): 2.5
- Score, Mean ([2]; conc. 0.0003%): 2.6
- Score, Determination A ([2]; conc. 0.001%): 3.0
- Score, Determination B ([2]; conc. 0.001%): 2.2
- Score, Determination C ([2]; conc. 0.001%): 2.8
- Score, Determination D ([2]; conc. 0.001%): 2.0
- Score, Mean ([2]; conc. 0.001%): 2.5
- Score, Determination A ([2]; conc. 0.003%): 1.4
- Score, Determination B ([2]; conc. 0.003%): 2.2
- Score, Determination C ([2]; conc. 0.003%): 3.0
- Score, Determination D ([2]; conc. 0.003%): 1.3
- Score, Mean ([2]; conc. 0.003%): 2.0
- Score, Determination A ([2]; conc. 0.01%): 1.5
- Score, Determination B ([2]; conc. 0.01%): 0.4
- Score, Determination C ([2]; conc. 0.01%): 1.3
- Score, Determination D ([2]; conc. 0.01%): 1.3
- Score, Mean ([2]; conc. 0.01%): 1.1
- Score, Determination A ([2]; conc. 0.03%): 0.6
- Score, Determination B ([2]; conc. 0.03%): 0.8
- Score, Determination C ([2]; conc. 0.03%): 0
- Score, Determination D ([2]; conc. 0.03%): 0.4
- Score, Mean ([2]; conc. 0.03%): 0.45
- times more efficacious than prior art compound 2, Candida induced vaginal infection in mice ([2]; relative to prior art compound 2 (for 3a: hydrogen fumarate vs hydrogen fumarate)): greater than 85 times
- MIC ([3]; Strain A): 0.5 mg/L
- MIC ([3]; Strain B): > 63 mg/L
- MIC ([3]; Strain C): > 63 mg/L
- MIC [4]: 63 mg/L
- MIC [5]: > 63 mg/L
- MIC [6]: 63 mg/L

SMILES: Cl.Clc1ccc(CSCSC(Cn2ccnc2)c2ccc(Cl)cc2Cl)cc1 (centres unmarked) [Compound 3b, 1-[2-(4-Chlorobenzylthiomethylthio)-2-(2,4-dichlorophenyl)ethyl]-1H-imidazole hydrochloride]
- EC50, Trichophyton Skin Infection [1]: 0.053%
- EC50 (%) (95% CL), Trichophyton skin infection [1]: 0.053%
- Score, Determ. F ([1]; conc. 0.03%): 3.5
- Score, Determ. G ([1]; conc. 0.03%): 1.3
- Score, Mean ([1]; conc. 0.03%): 2.4
- Score, Determ. F ([1]; conc. 0.1%): 1.0
- Score, Determ. G ([1]; conc. 0.1%): 0.3
- Score, Mean ([1]; conc. 0.1%): 0.7
- Score, Determ. F ([1]; conc. 0.3%): 0.3
- Score, Determ. G ([1]; conc. 0.3%): 0.3
- Score, Mean ([1]; conc. 0.3%): 0.3
- EC50, Candida Vaginal Infection [2]: 0.0011%
- EC50 (%) (95% CL), Candida vaginal infection [2]: 0.0011%
- Score, Determination C ([2]; conc. 0.0003%): 1.6
- Score, Determination D ([2]; conc. 0.0003%): 3.3
- Score, Mean ([2]; conc. 0.0003%): 2.5
- Score, Determination A ([2]; conc. 0.001%): 3.0
- Score, Determination C ([2]; conc. 0.001%): 1.6
- Score, Determination D ([2]; conc. 0.001%): 0.4
- Score, Mean ([2]; conc. 0.001%): 1.7
- Score, Determination A ([2]; conc. 0.003%): 0.4
- Score, Determination B ([2]; conc. 0.003%): 2.0
- Score, Determination C ([2]; conc. 0.003%): 2.2
- Score, Determination D ([2]; conc. 0.003%): 0.2
- Score, Mean ([2]; conc. 0.003%): 1.2
- Score, Determination A ([2]; conc. 0.01%): 1.4
- Score, Determination B ([2]; conc. 0.01%): 0.6
- Score, Determination C ([2]; conc. 0.01%): 1.4
- Score, Determination D ([2]; conc. 0.01%): 0
- Score, Mean ([2]; conc. 0.01%): 0.85
- Score, Determination A ([2]; conc. 0.03%): 0
- Score, Determination B ([2]; conc. 0.03%): 0.8
- Score, Determination C ([2]; conc. 0.03%): 2.4
- Score, Determination D ([2]; conc. 0.03%): 0.8
- Score, Mean ([2]; conc. 0.03%): 1.0
- Score, Determination A ([2]; conc. 0.1%): 0.2
- Score, Determination B ([2]; conc. 0.1%): 0
- Score, Mean ([2]; conc. 0.1%): 0.1
- Score, Determination A ([2]; conc. 0.3%): 0
- Score, Determination B ([2]; conc. 0.3%): 0
- Score, Mean ([2]; conc. 0.3%): 0
- MIC ([3]; Strain A): > 63 mg/L
- MIC ([3]; Strain B): > 63 mg/L
- MIC ([3]; Strain C): > 63 mg/L
- MIC [4]: > 63 mg/L
- MIC [5]: > 63 mg/L
- MIC [6]: > 63 mg/L

SMILES: Clc1ccc(CSCSC(Cn2ccnc2)c2ccc(Cl)cc2)cc1.O=C(O)/C=C/C(=O)O (centres unmarked) [Compound 3f, 1-[2-(4-Chlorobenzylthiomethylthio)-2-(4-chlorophenyl)ethyl]-1H-imidazole hydrogen fumarate]
- MIC ([3]; Strain A): 1 mg/L
- MIC ([3]; Strain B): > 63 mg/L
- MIC ([3]; Strain C): 1 mg/L
- MIC [4]: 63 mg/L
- MIC [5]: 4 mg/L
- MIC [6]: 63 mg/L
